Data as given in patent US7410655B2, “Anticancer agent” (Nobel Limited Liability Company, priority 2001, dated 2008).

System: PA-23 rhabdomyosarcoma
Assay: PA-23 rhabdomyosarcoma lung metastases after inoculation in the caudal vein of rats
Type: in vivo
Conditions: Example 2; 0.003 mg/ml in sodium chloride isotonic solution
Procedure: The preparation anti-tumor action was tested on female white rats.
The PA-23 rhabdomyosarcoma cell suspension was inoculated in the caudal vein of all rats, being generally used as a model for investigating the ability of such preparations to inhibit stroma development, which is characteristic of most malignant tumors.
All the animals were divided into 5 groups. On the following day after the inoculation a physiological solution was intra-abdominal injected into the rats of Group 1 (0.5 ml per animal); 0.1 ml of the preparation—into the rats of Group 2, 0.3 ml of the preparation—into the rats of Group 3; 0.5 ml of the preparation—into the rats of Group 4; and 0.8 ml of the preparation—into the rats of Group 5. Prior to administration the preparation had been diluted with a physiological solution in the ratio of 1 to 10.
Subsequent administration of the preparation […] was carried out every third day. On the 20 th day following the tumoral inoculation the rats were destroyed. Their bodies were dissected, the number of metastases in their lungs calculated and their respective weight determined by means of analytical balance weighing.
As in Example 1, the PA-23 rhabdomyosarcomas were used as a model. Tumoral inoculation was performed in a similar way. The laboratory animals were also divided into groups. The sodium chloride isotonic solution was injected into Group 1 (control), potassium tetrachloroplatinate in the sodium chloride isotonic solution—into Group 2, ammonium lignohumic acid salts in the sodium chloride isotonic solution were injected into Group 3, injections of the proposed preparation diluted with a physiological solution in the ratio of 1 to 10 were given to Group 4.

[Cl][Pt-2]([Cl])([Cl])[Cl].[K+].[K+] [Potassium tetrachloroplatinate solution, potassium tetrachloroplatinate]
Average number of metastases per rat: 33.2 ± 6.2
Average weight of 1 metastasis: 42.9 ± 4.3 mg
Average weight of 1 metastasis, % of the Control Group: 88.5%
Number of metastases: 531
